In one series the test system is d(CTG)12. Put plainly: Isothermal titration calorimetry, d(CTG)12. The note with it: 25° C., 20 mM MOPS pH 7.0, 300 mM NaCl. It is filed as binding. As for the experimental part:
To directly assess the DNA-targeting ability of 9, ITC experiments were performed with oligonucleotide analogs of the various trinucleotide repeat sequences (Table 1). […] This supports the idea that 9 inhibits the transcription of CTG^exp by stabilizing its hairpin structure. […] The in vitro transcription experiment using (CTG[…]CAG)74 (SEQ ID NOS 3-4, respectively) and compounds 2, 5-7, and 9 was repeated but with (CUG)16 (SEQ ID NO: 1) added as a competitor.
Isothermal titration calorimetry (ITC) measurements were performed at 25° C. on a MicroCal VP-ITC (MicroCal, Inc., Northampton, Mass.). A standard experiment consisted of titrating 10 μL of a 500 μM ligand solution from a […] syringe (rotating at 300 rpm) into a sample cell containing 1.42 mL of a 10 μM DNA or RNA solution. An ITC experiment consisted of 28 total injections (first injection was 5 μL, subsequent injections were 10 μL), with a 10 s duration per injection and delay of 380 s between injections. The initial delay prior to the first injection was 300 s. To derive the heat associated with each injection, the area under each isotherm (microcalories per second versus seconds) was determined by integration by the graphing program Origin 7.0 (MicroCal, Inc. Northampton, Mass.). […]

In a further series the test system is (CTG.CAG)74. Kind of series: In vitro transcription of (CTG.CAG)74. In kind it is biochemical. The protocol: FIG. 8A-B. In vitro transcription of (CTG.CAG)74 (SEQ ID NOS 3-4, respectively). Ligands at different concentrations were incubated with 15 ng linearized plasmids in T7 RNA polymerse mixture at 37° C. After 2 h, the reaction mixture was on a 8% denaturing gel. (a) Transcription gels of ligands at different concentrations (“(CUG)74” is disclosed as SEQ ID NO: 22). (b) Plot of the percentage of transcription inhibition versus ligand concentrations. The error bars represent standard errors of mean of three independent experiments. Untreated at 100 μM is at 0%; ligand 2 at 100 μM is at ˜10%; ligand 7 at 100 μM is at ˜35%; ligand 6 at 100 μM is at ˜80%; ligand 9 at 100 μM is at ˜96%; and ligand 5 at 100 μM is at ˜99%.
(SEQ ID NOS 3-4, respectively) transcription by 5, 6, and 9 in vitro. […] Nonetheless, the additional ammonium groups in these agents might potentially increase their affinity for both CTG DNA and CUG RNA so we returned to examine the potential for inhibition of CTG^exp transcription. The in vitro (CTG.CAG)74 (SEQ ID NOS 3-4, respectively) transcription assays utilized a T7 promoter located in the upstream region of the repeats.
(SEQ ID NOS 3-4, respectively). T7 RNA polymerase-mediated transcription reactions were incubated at 37° C. for 2 h. A 10 μL mixture contained 15 ng of linearized plasmid (CTG)74 (SEQ ID NO: 3) or control plasmid templates, 0.5 mM each rATP, rCTP, rGTP, and rUTP and 0.5 U T7 polymerase (Biolab) in 1×T7 transcription buffer (80 mM Tris pH 8.3, 10 mM MgCl2, 2 mM spermine, 0.1% Triton-X, 10 mM NaCl). Ligand was added with the final concentrations of 0, 1, 10, 50, and 100 μM prior to incubation. Reactions were quenched by adding 8 μL of 8 M Urea and 2 μL of denaturing dye (95% formamide, 5 mM EDTA, 0.025% each xylene cyanol and bromophenol blue) and heating to 95° C. for 5 min. Of this solution, 15 μL was run on a 8% denaturing polyacrylamide gel in 0.5×TBE and stained with EtBr. Bands were quantified using the ImageJ (NIH). The intensity of (CUG)74 (SEQ ID NO: 22) band (ca. 260 nt) was normalized to that from the untreated transcription reaction. […]

Series [1] has as its system Drosophila bearing i(CUG)60. Put plainly: Treatment of control Drosophila bearing i(CUG)60. Conditions: in vivo. From the text:
FIG. 15A-C. Rescuing disease phenotypes in DM1 Drosophila with ligands 2 and 9. […] The error bars represent the standard deviation of three independent experiments (“(CTG)60” is disclosed as SEQ ID NO: 5).

The target in a further series is MBNL1-CUGexp complex. The note with it: previously reported; cited from earlier work.
For another series, the system named is cells. The note with it: cited from earlier work.

“Also recorded” adds a separate entry of the source.

Consider `N=C(NCCCCNc1nc(N)nc(N)n1)c1ccc(C(=N)NCCCCNc2nc(N)nc(N)n2)cc1` [Ligand 2], for which the “binding affinity toward d(CTG)12 by ITC” value in the series with d(CTG)12 was “lack of binding affinity; also recorded: no detectable binding”. The “transcription inhibition of (CTG.CAG)74 at 100 μM” value with (CTG.CAG)74 (100 μM, 2 h, 37° C., T7 RNA polymerase) was around 10%. The “inhibition of (CTG.CAG)74 transcription (qualitative)” value in the series with (CTG.CAG)74 (1-100 μM) is given as “negligible effects”. In addition, in series [1], the “effects on larval locomotion and eyes of i(CUG)60 Drosophila” value is reported as “no effects”. In addition, the “KI, inhibition of MBNL binding” value at MBNL1-CUGexp complex is recorded as “low micromolar”. In addition, the “cell permeability / cell uptake” value with cells is reported as “better cell uptake”.
